Reference: patent US20120171126A1, “NOVEL [3,2-c] HETEROARYL STEROIDS AS GLUCOCORTICOID RECEPTOR AGONISTS COMPOSITIONS AND USES THEREOF” (priority 2009, published 2012)
Where two headings read alike, the source gives them in different places.

Test system: IL-8
Assay: Glucocorticoid transrepression assay, IL-8 inhibition (TR)
Type: cell-based
Conditions: Homo sapiens, NCl-H292 cells, TNFα 10 ng/ml; for Emax: read-out: IL-8 inhibition (TR) Emax % inhibition
Description: Human Lung epithelial cell line NCl-H292 cells were dissociated from stock flask using 0.05% trypsin/0.53 mM EDTA. Cells were suspended in complete medium and counted. Cells were plated in 96-well flat-bottom plates at 20K cells /well in 0.2 ml/well. Plates were incubated for 24-48 hours until cells were between 75-90% confluent. Medium was aspirated and replaced with medium containing various concentrations of steroids or antagonists. After 1 hour incubation at 37°, TNFα (10 ng/ml final concentration in 0.2 ml) was added and the cells incubated overnight. Control wells with and without TNF were included on each plate, as well as wells with TNF in addition to a maximum (10 μM) concentration of dexamethasone. The cell culture medium was sampled and IL-6 and IL-8 cytokine production was measured using the MSD Multi-Spot immunoassay.

SMILES | IC50 (Table 2) [nM] | Emax (Table 2) [%] | IC50 (Table 1) [nM] | Emax (Table 1) [%]
C[C@H](NC(=O)[C@@]1(OC(=O)c2ccco2)CCC2C3CCC4=Cc5c(cnn5-c5ccc(F)cc5)CC4(C)C3[C@@H](O)CC21C)c1cccc2ccccc12 (stereo partly shown) [Compound 15] | 0.06 to 20 | > 80 |  | 
CC12Cc3cnn(-c4ccccc4)c3C=C1CCC1C2[C@@H](O)CC2(C)C1CC[C@]2(O)C(=O)CSc1ccccn1 (stereo partly shown) [Compound 16] |  |  | 0.06 to 20 | > 80
C[C@H](NC(=O)[C@@]1(OC(=O)c2ccco2)CCC2C3CCC4=Cc5c(cnn5-c5ccc(F)cc5)CC4(C)C3[C@@H](O)CC21C)c1ccccc1 (stereo partly shown) [Compound 16] | 0.06 to 20 | > 80 |  | 
CC12Cc3cnn(-c4ccc(F)cc4)c3C=C1CCC1C2[C@@H](O)CC2(C)C1CC[C@]2(OC(=O)c1ccco1)C(=O)NCCc1cnccn1 (stereo partly shown) [Compound 17] | 0.06 to 20 | > 80 |  | 
CC12Cc3cnn(-c4ccc(F)cc4)c3C=C1CCC1C2[C@@H](O)CC2(C)C1CC[C@]2(O)C(=O)Nc1nc2ccc(S(N)(=O)=O)cc2s1 (stereo partly shown) [Compound 18] | 0.06 to 20 | > 80 |  | 
CC12Cc3cnn(-c4ccc(F)cc4)c3C=C1CCC1C2[C@@H](O)CC2(C)C1CC[C@]2(O)C(=O)N[C@H](CO)CCc1ccccc1 (stereo partly shown) [Compound 19] | 0.06 to 20 | > 80 |  | 
CC12Cc3cnn(-c4ccccc4)c3C=C1CCC1C2[C@@H](O)CC2(C)C1CC[C@]2(O)C(=O)CSc1nc2ccccc2o1 (stereo partly shown) [Compound 19] |  |  | 401 to 1000 | < 60
CC12Cc3cnn(-c4ccc(F)cc4)c3C=C1CCC1C2[C@@H](O)CC2(C)C1CC[C@]2(O)C(=O)NCc1nc2ccccc2o1 (stereo partly shown) [Compound 20] | 0.06 to 20 | > 80 |  | 
Cn1ncc2c1C=C1CCC3C([C@@H](O)CC4(C)C3CC[C@]4(O)C(=O)CSc3nc4ccccc4n3C)C1(C)C2 (stereo partly shown) [Compound 20] |  |  | 66 to 400 | 60 to 70
Cn1c(NC(=O)[C@@]2(O)CCC3C4CCC5=Cc6c(cnn6-c6ccc(F)cc6)CC5(C)C4[C@@H](O)CC32C)nc2ccccc21 (stereo partly shown) [Compound 21] | 0.06 to 20 | > 80 |  | 
Cn1ncc2c1C=C1CCC3C([C@@H](O)CC4(C)C3CC[C@]4(O)C(=O)CSc3nc4ccccc4s3)C1(C)C2 (stereo partly shown) [Compound 21] |  |  |  | < 60
CC12Cc3cnn(-c4ccc(F)cc4)c3C=C1CCC1C2[C@@H](O)CC2(C)C1CC[C@]2(O)C(=O)N[C@@H](CO)Cc1ccc2ccccc2c1 (stereo partly shown) [Compound 22] | 0.06 to 20 | > 80 |  | 
Cn1ncc2c1C=C1CCC3C([C@@H](O)CC4(C)C3CC[C@]4(O)C(=O)CSc3nc4ccccc4o3)C1(C)C2 (stereo partly shown) [Compound 22] |  |  | 66 to 400 | < 60
CC(NC(=O)[C@@]1(O)CCC2C3CCC4=Cc5c(cnn5-c5ccc(F)cc5)CC4(C)C3[C@@H](O)CC21C)c1nc2ccccc2s1 (stereo partly shown) [Compound 23] | 0.06 to 20 | > 80 |  | 
Cn1ncc2c1C=C1CCC3C([C@@H](O)CC4(C)C3CC[C@]4(O)C(=O)CSc3ccc4ccccc4n3)C1(C)C2 (stereo partly shown) [Compound 23] |  |  | 66 to 400 | 60 to 70
CC12Cc3cnn(-c4ccc(F)cc4)c3C=C1CCC1C2[C@@H](O)CC2(C)C1CC[C@]2(O)C(=O)N[C@H](CO)Cc1ccccc1 (stereo partly shown) [Compound 24] | 0.06 to 20 | > 80 |  | 
Cn1ncc2c1C=C1CCC3C([C@@H](O)CC4(C)C3CC[C@]4(O)C(=O)CSc3nc4ccccc4[nH]3)C1(C)C2 (stereo partly shown) [Compound 24] |  |  | 66 to 400 | 70 to 80
COc1ccc2sc(SCC(=O)[C@@]3(O)CCC4C5CCC6=Cc7c(cnn7C)CC6(C)C5[C@@H](O)CC43C)nc2c1 (stereo partly shown) [Compound 25] |  |  |  | < 60
Cn1ncc2c1C=C1CCC3C([C@@H](O)CC4(C)C3CC[C@]4(O)C(=O)CSc3ncccn3)C1(C)C2 (stereo partly shown) [Compound 26] |  |  |  | < 60
Cn1ncc2c1C=C1CCC3C([C@@H](O)CC4(C)C3CC[C@]4(O)C(=O)CSc3nc4cccnc4s3)C1(C)C2 (stereo partly shown) [Compound 28] |  |  |  | < 60
Cn1ncc2c1C=C1CCC3C([C@@H](O)CC4(C)C3CC[C@]4(O)C(=O)CSc3nc4ncccc4o3)C1(C)C2 (stereo partly shown) [Compound 29] |  |  | 401 to 1000 | < 60
Cn1ncc2c1C=C1CCC3C([C@@H](O)CC4(C)C3CC[C@]4(O)C(=O)CSc3cnc4ccccc4n3)C1(C)C2 (stereo partly shown) [Compound 30] |  |  | 66 to 400 | 60 to 70
Cc1ccnc(SCC(=O)[C@@]2(O)CCC3C4CCC5=Cc6c(cnn6C)CC5(C)C4[C@@H](O)CC32C)n1 (stereo partly shown) [Compound 31] |  |  |  | < 60
Cn1ncc2c1C=C1CCC3C([C@@H](O)CC4(C)C3CC[C@]4(O)C(=O)CSc3ccccn3)C1(C)C2 (stereo partly shown) [Compound 32] |  |  |  | < 60
Cc1cccc(SCC(=O)[C@@]2(O)CCC3C4CCC5=Cc6c(cnn6C)CC5(C)C4[C@@H](O)CC32C)n1 (stereo partly shown) [Compound 33] |  |  | 66 to 400 | < 60
Cn1c(SCC(=O)[C@@]2(O)CCC3C4CCC5=Cc6c(cnn6-c6ccccn6)CC5(C)C4[C@@H](O)CC32C)nc2ccccc21 (stereo partly shown) [Compound 34] |  |  | 66 to 400 | 60 to 70

SMILES | IC50 (Table 2) [nM] | Emax (Table 2) [%] | IC50 (Table 1) [nM] | Emax (Table 1) [%]
CC12Cc3cnn(-c4ccccn4)c3C=C1CCC1C2[C@@H](O)CC2(C)C1CC[C@]2(O)C(=O)CSc1nc2ccccc2s1 (stereo partly shown) [Compound 35] |  |  | 66 to 400 | 60 to 70
CC12Cc3cnn(-c4ccccn4)c3C=C1CCC1C2[C@@H](O)CC2(C)C1CC[C@]2(O)C(=O)CSc1nc2ccccc2o1 (stereo partly shown) [Compound 36] |  |  | 0.06 to 20 | > 80
CC12Cc3cnn(-c4ccccn4)c3C=C1CCC1C2[C@@H](O)CC2(C)C1CC[C@]2(O)C(=O)CSc1ccc2ccccc2n1 (stereo partly shown) [Compound 37] |  |  |  | < 60
CC12Cc3cnn(-c4ccccn4)c3C=C1CCC1C2[C@@H](O)CC2(C)C1CC[C@]2(O)C(=O)CSc1nc2ccccc2[nH]1 (stereo partly shown) [Compound 38] |  |  | 401 to 1000 | 60 to 70
COc1ccc2sc(SCC(=O)[C@@]3(O)CCC4C5CCC6=Cc7c(cnn7-c7ccccn7)CC6(C)C5[C@@H](O)CC43C)nc2c1 (stereo partly shown) [Compound 39] |  |  |  | < 60
CC12Cc3cnn(-c4ccccn4)c3C=C1CCC1C2[C@@H](O)CC2(C)C1CC[C@]2(O)C(=O)CSc1ncccn1 (stereo partly shown) [Compound 40] |  |  | 66 to 400 | 60 to 70
Cn1cnnc1SCC(=O)[C@@]1(O)CCC2C3CCC4=Cc5c(cnn5-c5ccccn5)CC4(C)C3[C@@H](O)CC21C (stereo partly shown) [Compound 41] |  |  |  | < 60
CC12Cc3cnn(-c4ccccn4)c3C=C1CCC1C2[C@@H](O)CC2(C)C1CC[C@]2(O)C(=O)CSc1nc2cccnc2s1 (stereo partly shown) [Compound 42] |  |  | 66 to 400 | 70 to 80
CC12Cc3cnn(-c4ccccn4)c3C=C1CCC1C2[C@@H](O)CC2(C)C1CC[C@]2(O)C(=O)CSc1nc2ncccc2o1 (stereo partly shown) [Compound 43] |  |  | 21 to 65 | 70 to 80
CC12Cc3cnn(-c4ccccn4)c3C=C1CCC1C2[C@@H](O)CC2(C)C1CC[C@]2(O)C(=O)CSc1cnc2ccccc2n1 (stereo partly shown) [Compound 44] |  |  | 401 to 1000 | < 60
Cc1ccnc(SCC(=O)[C@@]2(O)CCC3C4CCC5=Cc6c(cnn6-c6ccccn6)CC5(C)C4[C@@H](O)CC32C)n1 (stereo partly shown) [Compound 45] |  |  | 21 to 65 | > 80
CC12Cc3cnn(-c4ccccn4)c3C=C1CCC1C2[C@@H](O)CC2(C)C1CC[C@]2(O)C(=O)CSc1ccccn1 (stereo partly shown) [Compound 46] |  |  | 66 to 400 | 70 to 80
Cc1cccc(SCC(=O)[C@@]2(O)CCC3C4CCC5=Cc6c(cnn6-c6ccccn6)CC5(C)C4[C@@H](O)CC32C)n1 (stereo partly shown) [Compound 47] |  |  | 66 to 400 | > 80
Cn1c(SCC(=O)[C@@]2(O)CCC3C4CCC5=Cc6c(cnn6CCC#N)CC5(C)C4[C@@H](O)CC32C)nc2ccccc21 (stereo partly shown) [Compound 48] |  |  | 66 to 400 | < 60
CC12Cc3cnn(CCC#N)c3C=C1CCC1C2[C@@H](O)CC2(C)C1CC[C@]2(O)C(=O)CSc1nc2ccccc2s1 (stereo partly shown) [Compound 49] |  |  |  | < 60
CC12Cc3cnn(CCC#N)c3C=C1CCC1C2[C@@H](O)CC2(C)C1CC[C@]2(O)C(=O)CSc1nc2ccccc2o1 (stereo partly shown) [Compound 50] |  |  | 66 to 400 | 70 to 80
CC12Cc3cnn(CCC#N)c3C=C1CCC1C2[C@@H](O)CC2(C)C1CC[C@]2(O)C(=O)CSc1ccc2ccccc2n1 (stereo partly shown) [Compound 51] |  |  |  | < 60
CC12Cc3cnn(CCC#N)c3C=C1CCC1C2[C@@H](O)CC2(C)C1CC[C@]2(O)C(=O)CSc1nc2ccccc2[nH]1 (stereo partly shown) [Compound 52] |  |  | 401 to 1000 | < 60
CC12Cc3cnn(CCC#N)c3C=C1CCC1C2[C@@H](O)CC2(C)C1CC[C@]2(O)C(=O)CSc1ncccn1 (stereo partly shown) [Compound 54] |  |  | 401 to 1000 | < 60
Cn1cnnc1SCC(=O)[C@@]1(O)CCC2C3CCC4=Cc5c(cnn5CCC#N)CC4(C)C3[C@@H](O)CC21C (stereo partly shown) [Compound 55] |  |  |  | < 60
CC12Cc3cnn(CCC#N)c3C=C1CCC1C2[C@@H](O)CC2(C)C1CC[C@]2(O)C(=O)CSc1nc2cccnc2s1 (stereo partly shown) [Compound 56] |  |  |  | < 60
CC12Cc3cnn(CCC#N)c3C=C1CCC1C2[C@@H](O)CC2(C)C1CC[C@]2(O)C(=O)CSc1cnc2ccccc2n1 (stereo partly shown) [Compound 58] |  |  |  | < 60
Cc1ccnc(SCC(=O)[C@@]2(O)CCC3C4CCC5=Cc6c(cnn6CCC#N)CC5(C)C4[C@@H](O)CC32C)n1 (stereo partly shown) [Compound 59] |  |  | 66 to 400 | 60 to 70
Cc1cccc(SCC(=O)[C@@]2(O)CCC3C4CCC5=Cc6c(cnn6CCC#N)CC5(C)C4[C@@H](O)CC32C)n1 (stereo partly shown) [Compound 61] |  |  | 66 to 400 | 70 to 80
CC12Cc3cnn(C(C)(C)C)c3C=C1CCC1C2[C@@H](O)CC2(C)C1CC[C@]2(O)C(=O)CSc1nc2ccccc2s1 (stereo partly shown) [Compound 62] |  |  |  | < 60
Cn1c(SCC(=O)[C@@]2(O)CCC3C4CCC5=Cc6c(cnn6C(C)(C)C)CC5(C)C4[C@@H](O)CC32C)nc2ccccc21 (stereo partly shown) [Compound 63] |  |  |  | < 60
